{"source": "patent US20260232679A1", "about": "“PHARMACEUTICAL COMPOSITION FOR TREATING TUMORS” (Eisai R&D Management Co., Ltd., priority 2023, published 2026)", "key": {"[1]": {"system": "human colorectal cancer cell line Colo205 cells", "assay": "Antitumor effect in transplantation model nude mouse with human colorectal cancer cell line Colo205 cells (Example 1)", "assay_type": "in vivo", "conditions": "14 days; for enhancement in antitumor effect (tumor volume) by combined use with Trametinib: combined with Trametinib 0.3 mg/kg p.o., formula (I) 12.5 or 25 mg/kg p.o., ICG001 100 mg/kg i.p., FIGS. 1-3", "description": "Human colorectal cancer-derived cell line Colo205 cells (supplied by ATCC) were suspended in Hanks' Balanced Salt Solution (HBSS) (manufactured by FUJIFILM Wako Chemicals) at 5× 10^7 cells/mL. 0.1 mL of the obtained cell suspension was transplanted subcutaneously to a right frank of 6-week nude mice (CAnN.Cg-Foxn1 nu/CrlCrlj, manufactured by Charles River Laboratories Japan, Inc.). Ten days after the transplantation, a major axis and a minor axis of a tumor generated in each mouse were measured with a digimatic caliper (manufactured by Mitutoyo Corp.), and the mice were divided into groups each including six mice such that an average tumor volume was approximately equal. The tumor volume was calculated according to the following formula.\nFrom ten days after the transplantation, the compound represented by formula (I) (12.5 mg/kg or 25 mg/kg, once a day, 14 days, orally administered), Trametinib (0.3 mg/kg, once a day, 14 days, orally administered), and ICG001 (100 mg/kg, once a day, 14 days, intraperitoneally administered) were administered singly or in combination to the mice in a single administration group or a combined administration group. Note that any one of the above agents was not administered to a control group.\nNote that, at the time of administration, the compound represented by formula (I) was dissolved in 0.1 M hydrochloric acid at 1.25 mg/mL or 2.50 mg/mL, Trametinib (manufactured by Amadis Chemical) was dissolved in distilled water (pH 8.0) (manufactured by Otsuka Pharmaceutical Co., Ltd.) containing 0.5 w/v % of hydroxypropyl methyl cellulose (manufactured by FUJIFILM Wako Chemicals) and 0.2 w/v % of Tween80 (manufactured by Sigma) at 0.03 mg/mL, and ICG001 (manufactured by WuXi App Tec) was dissolved in physiological saline (manufactured by Otsuka Pharmaceutical Co., Ltd.) containing 3.5 w/v % of dimethylsulfoxide (manufactured by Wako Pure Chemical Industries, Ltd.) and 6.5 w/v % of Tween80 at 10 mg/mL.\nThe administration start day was defined as the first day, and a major axis and a minor axis of a tumor generated in each mouse were measured on the fifth day, the eighth day, the twelfth day, and the fifteenth day, and a tumor volume was calculated by a similar method to the above-described method. FIG. 1 illustrates a transition of the tumor volume in a case where 12.5 mg/kg of the compound represented by formula (I) and 0.3 mg/kg of Trametinib were administered singly or in combination. FIG. 2 illustrates a transition of the tumor volume in a case where 25.0 mg/kg of the compound represented by formula (I) and 0.3 mg/kg of Trametinib were administered singly or in combination. FIG. 3 illustrates a transition of the tumor volume in a case where 100 mg/kg of ICG001 and 0.3 mg/kg of Trametinib were administered singly or in combination. […]"}, "[2]": {"system": "patient-derived colorectal cancer organoid", "conditions": "PDX model mouse, ICG001 + Trametinib; cited from earlier work"}, "[3]": {"system": "human colorectal cancer cell line HT-29 (BRAF V600E-mutant)", "conditions": "HT-29 subcutaneous mouse model, cited from earlier work"}, "[4]": {"system": "human non-small cell lung cancer cell line NCI-H358 cells", "assay": "Antitumor effect in transplantation model nude mouse with human non-small cell lung cancer cell line NCI-H358 cells (Example 4)", "assay_type": "in vivo", "conditions": "p.o. once a day, 14 days", "description": "(§1) The tumor volume was calculated according to the following formula."}, "[5]": {"system": "human melanoma cell line A375 cells", "assay": "Antitumor effect in transplantation model nude mouse with human melanoma cell line A375 cells (Example 5)", "assay_type": "in vivo", "conditions": "p.o. once a day, 14 days", "description": "as §1"}, "[6]": {"system": "human colorectal cancer cell line Colo205 cells", "assay": "Antitumor effect in transplantation model nude mouse with human colorectal cancer cell line Colo205 cells (Example 3)", "assay_type": "in vivo", "conditions": "p.o. once a day, 14 days", "description": "as §1"}, "[7]": {"system": "human colorectal cancer cell line SW1463 cells", "assay": "Antitumor effect in transplantation model nude mouse with human colorectal cancer cell line SW1463 cells (Example 2)", "assay_type": "in vivo", "conditions": "formula (I) 25.0 mg/kg + Trametinib 0.3 mg/kg + Adagrasib 10 mg/kg, p.o. once a day, 14 days", "description": "as §1"}, "[8]": {"conditions": "formula (I) 25.0 mg/kg + Trametinib 0.3 mg/kg + Adagrasib 3 mg/kg, FIG. 12"}, "[9]": {"conditions": "formula (I) 25 mg/kg + Trametinib 0.3 mg/kg, FIG. 10"}, "[10]": {"conditions": "formula (I) 25 mg/kg + Trametinib 0.3 mg/kg, FIG. 13"}, "[11]": {"conditions": "formula (I) 25 mg/kg + Trametinib 0.3 mg/kg, FIG. 7"}}}
{"smiles": "O=C1[C@H](Cc2ccc(O)cc2)N2C(=O)CCN(C(=O)NCc3ccccc3)[C@H]2CN1Cc1cccc2ccccc12", "note": "[ICG001]", "values": [{"measurement": "enhancement in antitumor effect (tumor volume) by combined use with Trametinib", "setting": "[1]; once a day", "result": "remarkable enhancement in antitumor effect was not observed"}, {"measurement": "antitumor effect, in combination with Trametinib compared to the single administration", "setting": "[2]", "result": "antitumor effect is enhanced"}, {"measurement": "antitumor effect, in combination with both Vemurafenib and Trametinib compared to the single administration", "setting": "[3]; ICG001 + Vemurafenib + Trametinib", "result": "antitumor effect is enhanced"}, {"measurement": "antitumor effect, in combination with Vemurafenib compared to the single administration", "setting": "[3]; ICG001 + Vemurafenib", "result": "antitumor effect is enhanced"}]}
{"smiles": "C=CCN1CC(=O)N2[C@@H](Cc3ccc(O)cc3F)C(=O)N(Cc3cccc(N4CC(N5CCN(CC)CC5)C4)n3)C[C@@H]2N1C(=O)NCc1ccccc1", "note": "[compound represented by formula (I), (6S,9aS)—N-benzyl-8-({6-[3-(4-ethylpiperazin-1-yl)azetidin-1-yl]pyridin-2-yl}methyl)-6-(2-fluoro-4-hydroxybenzyl)-4,7-dioxo-2-(prop-2-en-1-yl)hexahydro-2H-pyrazino[2,1-c][1,2,4]triazine-1(6H)-carboxamide]", "values": [{"measurement": "tumor proliferation, three-agent combination with Trametinib and Adagrasib compared with formula (I) singly or Trametinib + Adagrasib", "setting": "[4]; formula (I) 25.0 mg/kg + Trametinib 0.3 mg/kg + Adagrasib 3 mg/kg, FIG. 11", "result": "inhibited tumor proliferation in a statistically significant manner"}, {"measurement": "antitumor effect, three-agent combination with Trametinib and Adagrasib compared with two-agent formula (I) + Trametinib", "setting": "[4]; [8]", "result": "enhancement tendency"}, {"measurement": "tumor proliferation, three-agent combination with Trametinib and Adagrasib compared with Adagrasib singly", "setting": "[4]; [8]", "result": "inhibited tumor proliferation in a statistically significant manner"}, {"measurement": "antitumor effect, combined use with Trametinib compared with formula (I) or Trametinib administered singly", "setting": "[4]; [9]", "result": "tendency to enhance the antitumor effect"}, {"measurement": "enhancement in antitumor effect (tumor volume) by combined use with Trametinib", "setting": "[4]; [9]", "result": "remarkable enhancement in antitumor effect"}, {"measurement": "tumor proliferation, three-agent combination with Trametinib and Dabrafenib compared with formula (I) singly or Trametinib + Dabrafenib", "setting": "[5]; formula (I) 25.0 mg/kg + Trametinib 0.3 mg/kg + Dabrafenib 30 mg/kg, FIG. 14", "result": "inhibited tumor proliferation in a statistically significant manner"}, {"measurement": "tumor proliferation, three-agent combination with Trametinib and Dabrafenib compared with Dabrafenib singly or formula (I) + Trametinib", "setting": "[5]; formula (I) 25.0 mg/kg + Trametinib 0.3 mg/kg + Dabrafenib 30 mg/kg, FIG. 15", "result": "inhibited tumor proliferation in a statistically significant manner"}, {"measurement": "enhancement in antitumor effect (tumor volume) by combined use with Trametinib", "setting": "[5]; [10]", "result": "remarkable enhancement in antitumor effect"}, {"measurement": "tumor proliferation, combined use with Trametinib compared with formula (I) or Trametinib administered singly", "setting": "[5]; [10]", "result": "inhibited tumor proliferation in a statistically significant manner"}, {"measurement": "tumor proliferation, three-agent combination with Trametinib and Dabrafenib compared with two-agent Trametinib + Dabrafenib", "setting": "[6]; formula (I) 25.0 mg/kg + Trametinib 0.3 mg/kg + Dabrafenib 30 mg/kg, FIG. 8", "result": "inhibited tumor proliferation in a statistically significant manner"}, {"measurement": "tumor proliferation, three-agent combination with Trametinib and Dabrafenib compared with two-agent formula (I) + Trametinib", "setting": "[6]; formula (I) 25.0 mg/kg + Trametinib 0.3 mg/kg + Dabrafenib 30 mg/kg, FIG. 9", "result": "inhibited tumor proliferation in a statistically significant manner"}, {"measurement": "enhancement in antitumor effect (tumor volume) by combined use with Trametinib", "setting": "[6]; [11]", "result": "remarkable enhancement in antitumor effect"}, {"measurement": "tumor proliferation, combined use with Trametinib compared with formula (I) or Trametinib administered singly", "setting": "[6]; [11]", "result": "inhibited tumor proliferation in a statistically significant manner"}, {"measurement": "tumor proliferation, three-agent combination with Trametinib and Adagrasib compared with formula (I) singly or Trametinib + Adagrasib", "setting": "[7]; FIG. 5", "result": "inhibited tumor proliferation in a statistically significant manner"}, {"measurement": "tumor proliferation, three-agent combination with Trametinib and Adagrasib compared with Adagrasib singly or formula (I) + Trametinib", "setting": "[7]; FIG. 6", "result": "inhibited tumor proliferation in a statistically significant manner"}, {"measurement": "enhancement in antitumor effect (tumor volume) by combined use with Trametinib", "setting": "[1]; once a day", "result": "remarkable enhancement in antitumor effect"}, {"measurement": "tumor proliferation, combined use with Trametinib compared with formula (I) or Trametinib administered singly", "setting": "[1]; formula (I) 12.5 or 25 mg/kg p.o. + Trametinib 0.3 mg/kg p.o., once a day, FIGS. 1 and 2", "result": "inhibited tumor proliferation in a statistically significant manner"}, {"measurement": "tumor proliferation, combined administration with Trametinib compared with combined administration of ICG001 and Trametinib", "setting": "[1]; formula (I) 12.5 or 25 mg/kg p.o. + Trametinib 0.3 mg/kg vs ICG001 100 mg/kg i.p. + Trametinib 0.3 mg/kg, FIG. 4", "result": "inhibited tumor proliferation in a statistically significant manner"}]}
